These are literature values, as cited in paper PMC12348585, “Semi-Synthesis, Anti-Leukemia Activity, and Docking Study of Derivatives from 3α,24-Dihydroxylup-20(29)-en-28-Oic Acid” (Molecules, 2025).

One data set deals with K562 cells. Set-up: method as in PMID 32178533. As to conditions: cited from earlier work.
The subject of data set [1] is normal peripheral blood lymphocytes (PBLs). As to conditions: cited from earlier work.
The test system of a further data set is JURKAT cells. As to conditions: read-out: IC50 in JURKAT cells; cited from earlier work.

Broadly, the IC50 is the concentration that inhibits the measured activity by half. For the compound `C=C(C=O)[C@@H]1CC[C@]2(C)CC[C@]3(C)[C@H](CC[C@@H]4[C@@]5(C)CC[C@H](O)C(C)(C)[C@@H]5CC[C@]43C)[C@@H]12` [3β-hydroxylup-20(29)-en-30-al], the results for the 50% inhibitory concentration (IC50) with K562 cells and with JURKAT cells were 19.5 ± 0.47 µM and 11.7 ± 1.06 µM, respectively. For the same compound, in data set [1], the “reduction of viability of normal peripheral blood lymphocytes (PBLs)” value was 32.17%.
